Patent EP4722207A1, “OXOISOINDOLINYL-SUBSTITUTED TETRAHYDROPYRIMIDINEDIONE DERIVATIVE AND USE THEREOF” (Gluetacs Therapeutics (Shanghai) Co., Ltd., priority 2023, dated 2024)

Tests used:
Type in all cases: cell-based
WEE1 = molecular target: T1, WEE1 (Homo sapiens, UniProt P30291+Q96SW2); assay: Western-blot assay, substrate protein degradation in hPBMCs: WEE1; details: for WEE1 substrate protein remaining %: compounds at 50 nM and 500 nM, 24 hours; for substrate protein remaining % WEE1: 24 hours of compound treatment, 50 nM and 500 nM
T1 construct: effects of the compounds of the present disclosure on the expression of target proteins in cells; endogenous in cells; host or cells: human PBMCs (hPBMCs)
T1 sequence (P30291 whole entry): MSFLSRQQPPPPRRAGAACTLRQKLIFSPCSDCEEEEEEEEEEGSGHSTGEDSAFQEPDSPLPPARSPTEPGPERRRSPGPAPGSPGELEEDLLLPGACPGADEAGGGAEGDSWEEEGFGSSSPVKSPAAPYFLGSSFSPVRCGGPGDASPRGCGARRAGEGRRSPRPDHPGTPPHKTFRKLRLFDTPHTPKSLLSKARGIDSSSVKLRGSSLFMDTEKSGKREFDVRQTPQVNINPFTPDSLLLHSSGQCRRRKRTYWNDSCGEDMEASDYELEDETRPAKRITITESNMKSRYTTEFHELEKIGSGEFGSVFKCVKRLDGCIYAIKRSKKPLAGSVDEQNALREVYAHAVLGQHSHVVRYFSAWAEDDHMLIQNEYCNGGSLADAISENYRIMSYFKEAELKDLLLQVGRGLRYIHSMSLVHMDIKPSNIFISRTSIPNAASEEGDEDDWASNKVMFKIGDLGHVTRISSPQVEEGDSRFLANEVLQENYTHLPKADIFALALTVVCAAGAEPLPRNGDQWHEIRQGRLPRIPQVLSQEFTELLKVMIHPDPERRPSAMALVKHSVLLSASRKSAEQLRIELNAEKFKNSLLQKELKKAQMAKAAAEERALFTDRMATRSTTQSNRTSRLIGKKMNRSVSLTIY
T1 sequence (Q96SW2 whole entry): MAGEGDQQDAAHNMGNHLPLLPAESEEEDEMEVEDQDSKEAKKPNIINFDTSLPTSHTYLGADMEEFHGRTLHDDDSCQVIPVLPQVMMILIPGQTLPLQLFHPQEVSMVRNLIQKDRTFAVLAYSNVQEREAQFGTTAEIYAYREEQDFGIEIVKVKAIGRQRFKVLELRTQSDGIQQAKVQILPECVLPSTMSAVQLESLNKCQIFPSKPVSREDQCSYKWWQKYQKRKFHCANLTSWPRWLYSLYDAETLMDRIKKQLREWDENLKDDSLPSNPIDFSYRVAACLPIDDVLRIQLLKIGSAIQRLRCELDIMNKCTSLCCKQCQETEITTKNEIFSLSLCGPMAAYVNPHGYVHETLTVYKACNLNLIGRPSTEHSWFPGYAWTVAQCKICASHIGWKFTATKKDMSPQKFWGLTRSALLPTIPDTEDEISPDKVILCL
T1 sequence (Q16531 whole entry partner): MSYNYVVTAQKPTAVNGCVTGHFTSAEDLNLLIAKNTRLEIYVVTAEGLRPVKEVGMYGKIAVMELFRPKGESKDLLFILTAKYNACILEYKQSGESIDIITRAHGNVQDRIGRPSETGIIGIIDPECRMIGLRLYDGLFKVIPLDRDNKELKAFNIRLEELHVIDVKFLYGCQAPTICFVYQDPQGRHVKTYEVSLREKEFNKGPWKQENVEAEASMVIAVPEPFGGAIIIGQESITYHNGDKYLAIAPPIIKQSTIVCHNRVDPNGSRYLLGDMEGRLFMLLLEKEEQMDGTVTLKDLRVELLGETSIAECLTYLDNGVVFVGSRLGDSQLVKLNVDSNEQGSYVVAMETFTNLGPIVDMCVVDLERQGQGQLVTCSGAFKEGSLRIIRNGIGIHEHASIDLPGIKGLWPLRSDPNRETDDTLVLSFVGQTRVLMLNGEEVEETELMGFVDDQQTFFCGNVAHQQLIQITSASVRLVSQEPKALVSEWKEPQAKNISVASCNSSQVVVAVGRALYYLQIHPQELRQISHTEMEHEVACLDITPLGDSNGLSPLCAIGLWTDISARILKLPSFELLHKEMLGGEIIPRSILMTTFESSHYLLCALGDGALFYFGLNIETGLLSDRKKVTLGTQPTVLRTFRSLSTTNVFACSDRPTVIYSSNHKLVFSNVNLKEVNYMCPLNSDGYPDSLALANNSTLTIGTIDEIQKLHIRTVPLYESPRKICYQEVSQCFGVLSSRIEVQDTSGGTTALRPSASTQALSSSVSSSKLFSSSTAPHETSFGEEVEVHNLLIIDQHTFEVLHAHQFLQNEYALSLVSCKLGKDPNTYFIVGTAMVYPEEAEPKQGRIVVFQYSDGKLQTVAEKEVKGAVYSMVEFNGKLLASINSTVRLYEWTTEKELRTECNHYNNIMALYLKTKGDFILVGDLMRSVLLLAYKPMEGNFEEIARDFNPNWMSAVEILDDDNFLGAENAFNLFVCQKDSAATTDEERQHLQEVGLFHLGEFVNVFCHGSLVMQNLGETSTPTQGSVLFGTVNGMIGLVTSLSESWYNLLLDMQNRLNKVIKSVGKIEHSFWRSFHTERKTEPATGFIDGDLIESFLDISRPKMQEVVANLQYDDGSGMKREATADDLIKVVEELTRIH

IKZF1 = molecular target: T2, IKZF1 (Homo sapiens, UniProt Q13422+Q96SW2); assay: Western-blot assay, substrate protein degradation in hPBMCs: IKZF1; details: for IKZF1 substrate protein remaining %: compounds at 50 nM and 500 nM, 24 hours; for substrate protein remaining % IKZF1: 24 hours of compound treatment, 50 nM and 500 nM
T2 construct: effects of the compounds of the present disclosure on the expression of target proteins in cells; endogenous in cells; host or cells: human PBMCs (hPBMCs)

IKZF2 = molecular target: T3, IKZF2 (Homo sapiens, UniProt Q96SW2+Q9UKS7); assay: Western-blot assay, substrate protein degradation in hPBMCs: IKZF2; details: for IKZF2 substrate protein remaining %: compounds at 50 nM and 500 nM, 24 hours; for substrate protein remaining % IKZF2: 24 hours of compound treatment, 50 nM and 500 nM
T3 construct: effects of the compounds of the present disclosure on the expression of target proteins in cells; endogenous in cells; host or cells: human PBMCs (hPBMCs)
T3 sequence (Q9UKS7 whole entry): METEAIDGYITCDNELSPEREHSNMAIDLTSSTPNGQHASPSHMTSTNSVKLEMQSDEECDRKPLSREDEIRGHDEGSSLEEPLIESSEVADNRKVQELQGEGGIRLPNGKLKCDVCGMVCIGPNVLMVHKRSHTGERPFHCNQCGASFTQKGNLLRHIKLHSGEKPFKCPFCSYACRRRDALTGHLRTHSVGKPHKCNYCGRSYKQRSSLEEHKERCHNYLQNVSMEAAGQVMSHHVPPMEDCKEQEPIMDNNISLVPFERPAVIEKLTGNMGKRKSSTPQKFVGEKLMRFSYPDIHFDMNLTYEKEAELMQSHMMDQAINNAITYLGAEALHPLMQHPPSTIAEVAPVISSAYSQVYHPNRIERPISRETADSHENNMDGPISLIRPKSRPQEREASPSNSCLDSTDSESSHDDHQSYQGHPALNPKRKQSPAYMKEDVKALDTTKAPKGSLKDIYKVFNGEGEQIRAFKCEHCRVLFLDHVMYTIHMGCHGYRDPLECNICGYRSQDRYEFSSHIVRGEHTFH
T3 sequence (Q96SW2 whole entry): as the sequence (Q96SW2 whole entry) above
T3 sequence (Q16531 whole entry partner): as the sequence (Q16531 whole entry partner) above

IKZF3 = molecular target: T4, IKZF3 (Homo sapiens, UniProt Q96SW2+Q9UKT9); assay: Western-blot assay, substrate protein degradation in hPBMCs: IKZF3; details: for IKZF3 substrate protein remaining %: compounds at 50 nM and 500 nM, 24 hours; for substrate protein remaining % IKZF3: 24 hours of compound treatment, 50 nM and 500 nM
T4 construct: effects of the compounds of the present disclosure on the expression of target proteins in cells; endogenous in cells; host or cells: human PBMCs (hPBMCs)
T4 sequence (Q9UKT9 whole entry): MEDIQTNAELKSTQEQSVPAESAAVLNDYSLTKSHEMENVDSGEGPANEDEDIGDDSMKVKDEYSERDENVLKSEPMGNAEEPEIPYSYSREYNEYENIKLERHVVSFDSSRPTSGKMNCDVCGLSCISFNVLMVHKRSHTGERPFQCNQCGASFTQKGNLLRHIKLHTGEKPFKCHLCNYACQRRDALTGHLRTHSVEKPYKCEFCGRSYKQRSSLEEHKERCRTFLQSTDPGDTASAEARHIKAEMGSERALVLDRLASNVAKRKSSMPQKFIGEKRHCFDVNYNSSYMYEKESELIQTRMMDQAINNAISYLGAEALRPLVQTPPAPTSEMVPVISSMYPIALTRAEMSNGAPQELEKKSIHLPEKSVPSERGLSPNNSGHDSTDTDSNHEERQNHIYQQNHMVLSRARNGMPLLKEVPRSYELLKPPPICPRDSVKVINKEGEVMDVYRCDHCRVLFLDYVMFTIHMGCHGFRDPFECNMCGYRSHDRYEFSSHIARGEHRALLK
T4 sequence (Q96SW2 whole entry): as the sequence (Q96SW2 whole entry) above
T4 sequence (Q16531 whole entry partner): as the sequence (Q16531 whole entry partner) above

CK1α = molecular target: T5, CK1α (Homo sapiens, UniProt P48729+Q96SW2); assay: Western-blot assay, substrate protein degradation in hPBMCs: CK1α; details: for CK1α substrate protein remaining %: compounds at 50 nM and 500 nM, 24 hours; for substrate protein remaining % CK1α: 24 hours of compound treatment, 50 nM and 500 nM
T5 construct: effects of the compounds of the present disclosure on the expression of target proteins in cells; endogenous in cells; host or cells: human PBMCs (hPBMCs)
T5 sequence (P48729 whole entry): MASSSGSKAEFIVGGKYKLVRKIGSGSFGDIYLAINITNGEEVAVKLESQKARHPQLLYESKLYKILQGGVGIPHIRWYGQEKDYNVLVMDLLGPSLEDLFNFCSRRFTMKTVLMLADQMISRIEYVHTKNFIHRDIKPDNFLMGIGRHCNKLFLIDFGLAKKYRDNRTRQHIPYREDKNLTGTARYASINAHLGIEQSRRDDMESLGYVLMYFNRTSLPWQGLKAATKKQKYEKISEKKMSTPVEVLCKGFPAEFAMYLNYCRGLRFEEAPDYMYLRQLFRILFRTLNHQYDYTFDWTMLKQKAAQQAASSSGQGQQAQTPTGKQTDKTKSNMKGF
T5 sequence (Q96SW2 whole entry): as the sequence (Q96SW2 whole entry) above
T5 sequence (Q16531 whole entry partner): as the sequence (Q16531 whole entry partner) above

GSPT1 = molecular target: T6, GSPT1 (Homo sapiens, UniProt P15170+Q96SW2); assay: Western-blot assay, substrate protein degradation in hPBMCs: GSPT1; details: for GSPT1 substrate protein remaining %: compounds at 50 nM and 500 nM, 24 hours; for substrate protein remaining % GSPT1: 24 hours of compound treatment, 50 nM and 500 nM
T6 construct: effects of the compounds of the present disclosure on the expression of target proteins in cells; endogenous in cells; host or cells: human PBMCs (hPBMCs)
T6 sequence (P15170 whole entry): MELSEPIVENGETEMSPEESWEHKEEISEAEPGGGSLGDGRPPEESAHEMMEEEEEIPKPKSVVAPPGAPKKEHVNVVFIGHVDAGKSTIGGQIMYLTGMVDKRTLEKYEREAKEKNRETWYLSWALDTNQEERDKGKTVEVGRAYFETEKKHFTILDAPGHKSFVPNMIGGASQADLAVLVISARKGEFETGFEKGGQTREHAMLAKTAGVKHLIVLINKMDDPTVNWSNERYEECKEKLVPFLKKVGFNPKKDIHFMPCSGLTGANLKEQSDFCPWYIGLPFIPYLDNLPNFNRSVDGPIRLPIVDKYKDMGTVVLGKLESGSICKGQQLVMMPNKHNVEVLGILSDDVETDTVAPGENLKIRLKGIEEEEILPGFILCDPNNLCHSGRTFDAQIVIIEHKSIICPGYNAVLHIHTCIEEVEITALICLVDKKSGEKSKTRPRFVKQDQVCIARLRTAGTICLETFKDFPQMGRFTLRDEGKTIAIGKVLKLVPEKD
T6 sequence (Q96SW2 whole entry): as the sequence (Q96SW2 whole entry) above
T6 sequence (Q16531 whole entry partner): as the sequence (Q16531 whole entry partner) above

| Structure (SMILES) | WEE1 substrate protein remaining % (WEE1) | IKZF1 substrate protein remaining % (IKZF1) | IKZF2 substrate protein remaining % (IKZF2) | IKZF3 substrate protein remaining % (IKZF3) | CK1α substrate protein remaining % (CK1α) | GSPT1 substrate protein remaining % (GSPT1) | substrate protein remaining % WEE1 (WEE1) | substrate protein remaining % IKZF1 (IKZF1) | substrate protein remaining % IKZF2 (IKZF2) | substrate protein remaining % IKZF3 (IKZF3) | substrate protein remaining % CK1α (CK1α) | substrate protein remaining % GSPT1 (GSPT1) |
| --- | --- | --- | --- | --- | --- | --- | --- | --- | --- | --- | --- | --- |
| O=C1CCN(N2C(=O)c3ccc(CN4CCN(c5ccc(Br)cc5)CC4)cc3C2=O)C(=O)N1 [GT-06784, 5-((4-(4-bromophenyl)piperazin-1-yl)methyl)-2-(2,4-dioxotetrahydropyrimidin-1(2H)-yl)isoindoline-1,3-dione] | B ("B" is defined as 80%< substrate protein remaining %≤ 100%) | B ("B" is defined as 80%< substrate protein remaining %≤ 100%) | B ("B" is defined as 80%< substrate protein remaining %≤ 100%) | B ("B" is defined as 80%< substrate protein remaining %≤ 100%) | A ("A" is defined as 0% ≤ substrate protein remaining % ≤ 80%) | B ("B" is defined as 80%< substrate protein remaining %≤ 100%) |  |  |  |  |  |  |
| CC1(C)CCC(CN2CCN(Cc3ccc4c(c3)C(=O)N(N3CCC(=O)NC3=O)C4=O)C(C(F)(F)F)C2)=C(c2ccc(Cl)cc2)C1 (stereo not drawn) [GT-07301, 5-((4-((4'-chloro-5,5-dimethyl-3,4,5,6-tetrahydro-[1,1'-biphenyl]-2-yl)methyl)-2-(trifluoromethyl)piperazin-1-yl)methyl)-2-(2,4-dioxotetrahydropyrimidin-1(2H)-yl)isoindoline-1,3-dione] |  |  |  |  |  |  | B (80%< substrate protein remaining %≤ 100%) | B (80%< substrate protein remaining %≤ 100%) | B (80%< substrate protein remaining %≤ 100%) | B (80%< substrate protein remaining %≤ 100%) | B (80%< substrate protein remaining %≤ 100%) | A (0% ≤ substrate protein remaining % ≤ 80%) |
| O=C1CCN(N2C(=O)c3ccc(CN4CCC(N(c5ccccc5)c5ccccc5)CC4)cc3C2=O)C(=O)N1 [GT-05177, 2-(2,4-dioxotetrahydropyrimidin-1(2H)-yl)-5-((4-(diphenylamino)piperidin-1-yl)methyl)isoindoline-1,3-dione] | B ("B" is defined as 80%< substrate protein remaining %≤ 100%) | B ("B" is defined as 80%< substrate protein remaining %≤ 100%) | B ("B" is defined as 80%< substrate protein remaining %≤ 100%) | B ("B" is defined as 80%< substrate protein remaining %≤ 100%) | B ("B" is defined as 80%< substrate protein remaining %≤ 100%) | A ("A" is defined as 0% ≤ substrate protein remaining % ≤ 80%) |  |  |  |  |  |  |
| O=C1CCN(N2C(=O)c3ccc(CN4CC5CCC4CN5C(c4ccccc4)c4ccccc4)cc3C2=O)C(=O)N1 (stereo not drawn) [GT-06451, 5-((5-benzhydryl-2,5-diazabicyclo[2.2.2]octan-2-yl)methyl)-2-(2,4-dioxotetrahydropyrimidin-1(2H)-yl)isoindoline-1,3-dione] | A ("A" is defined as 0% ≤ substrate protein remaining % ≤ 80%) | B ("B" is defined as 80%< substrate protein remaining %≤ 100%) | B ("B" is defined as 80%< substrate protein remaining %≤ 100%) | B ("B" is defined as 80%< substrate protein remaining %≤ 100%) | B ("B" is defined as 80%< substrate protein remaining %≤ 100%) | B ("B" is defined as 80%< substrate protein remaining %≤ 100%) |  |  |  |  |  |  |
| O=C1CCN(N2C(=O)c3ccc(CN4CCN(c5cccnc5)CC4)cc3C2=O)C(=O)N1 [GT-06971, 2-(2,4-dioxotetrahydropyrimidin-1(2H)-yl)-5-((4-(pyridin-3-yl)piperazin-1-yl)methyl)isoindoline-1,3-dione] | A ("A" is defined as 0% ≤ substrate protein remaining % ≤ 80%) | B ("B" is defined as 80%< substrate protein remaining %≤ 100%) | A ("A" is defined as 0% ≤ substrate protein remaining % ≤ 80%) | B ("B" is defined as 80%< substrate protein remaining %≤ 100%) | B ("B" is defined as 80%< substrate protein remaining %≤ 100%) | B ("B" is defined as 80%< substrate protein remaining %≤ 100%) |  |  |  |  |  |  |
| O=C1CCN(N2C(=O)c3ccc(CN4CC5CCC4CN5c4cccc(Cl)c4Cl)cc3C2=O)C(=O)N1 (stereo not drawn) [GT-07436, 5-((5-(2,3-dichlorophenyl)-2,5-diazabicyclo[2.2.2]octan-2-yl)methyl)-2-(2,4-dioxotetrahydropyrimidin-1(2H)-yl)isoindoline-1,3-dione] |  |  |  |  |  |  | B (80%< substrate protein remaining %≤ 100%) | B (80%< substrate protein remaining %≤ 100%) | A (0% ≤ substrate protein remaining % ≤ 80%) | B (80%< substrate protein remaining %≤ 100%) | A (0% ≤ substrate protein remaining % ≤ 80%) | B (80%< substrate protein remaining %≤ 100%) |
| Cc1cc(C2=CCN(Cc3ccc4c(c3)C(=O)N(N3CCC(=O)NC3=O)C4=O)CC2)cs1 [GT-07423, 2-(2,4-dioxotetrahydropyrimidin-1(2H)-yl)-5-((4-(5-methylthiophen-3-yl)-3,6-dihydropyridin-1(2H)-yl)methyl)isoindoline-1,3-dione] |  |  |  |  |  |  | A (0% ≤ substrate protein remaining % ≤ 80%) | B (80%< substrate protein remaining %≤ 100%) | B (80%< substrate protein remaining %≤ 100%) | A (0% ≤ substrate protein remaining % ≤ 80%) | A (0% ≤ substrate protein remaining % ≤ 80%) | A (0% ≤ substrate protein remaining % ≤ 80%) |
| O=C1CCN(N2Cc3cc(CN4CCN(c5ccc(Cl)cc5Cl)CC4)ccc3C2=O)C(=O)N1 [GT-06772, 1-(5-((4-(2,4-dichlorophenyl)piperazin-1-yl)methyl)-1-oxoisoindolin-2-yl)dihydropyrimidine-2,4(1H,3H)-dione] | A ("A" is defined as 0% ≤ substrate protein remaining % ≤ 80%) | B ("B" is defined as 80%< substrate protein remaining %≤ 100%) | A ("A" is defined as 0% ≤ substrate protein remaining % ≤ 80%) | A ("A" is defined as 0% ≤ substrate protein remaining % ≤ 80%) | A ("A" is defined as 0% ≤ substrate protein remaining % ≤ 80%) | A ("A" is defined as 0% ≤ substrate protein remaining % ≤ 80%) |  |  |  |  |  |  |
| O=C1CCN(N2Cc3cc(CN4CCN(c5ncnc(Cl)c5Cl)CC4)ccc3C2=O)C(=O)N1 [GT-07028, 1-(5-((4-(5,6-dichloropyrimidin-4-yl)piperazin-1-yl)methyl)-1-oxoisoindolin-2-yl)dihydropyrimidine-2,4(1H,3H)-dione] | A ("A" is defined as 0% ≤ substrate protein remaining % ≤ 80%) | B ("B" is defined as 80%< substrate protein remaining %≤ 100%) | B ("B" is defined as 80%< substrate protein remaining %≤ 100%) | B ("B" is defined as 80%< substrate protein remaining %≤ 100%) | B ("B" is defined as 80%< substrate protein remaining %≤ 100%) | A ("A" is defined as 0% ≤ substrate protein remaining % ≤ 80%) |  |  |  |  |  |  |
| O=C1CCN(N2C(=O)c3ccc(CN4CCN(c5ccnc(Cl)c5F)CC4)cc3C2=O)C(=O)N1 [GT-07166, 5-((4-(2-chloro-3-fluoropyridin-4-yl)piperazin-1-yl)methyl)-2-(2,4-dioxotetrahydropyrimidin-1(2H)-yl)isoindoline-1,3-dione] | B ("B" is defined as 80%< substrate protein remaining %≤ 100%) | B ("B" is defined as 80%< substrate protein remaining %≤ 100%) | A ("A" is defined as 0% ≤ substrate protein remaining % ≤ 80%) | B ("B" is defined as 80%< substrate protein remaining %≤ 100%) | B ("B" is defined as 80%< substrate protein remaining %≤ 100%) | A ("A" is defined as 0% ≤ substrate protein remaining % ≤ 80%) |  |  |  |  |  |  |
